Results as given in patent US20060135440A1, “Use of ribose to alleviate rhabdomyolysis and the side effects of statin drugs” (priority 2004, published 2006).

Columns and labels:
Format in all cases: in vivo, human
[1] = system: statin drug-induced rhabdomyolysis patient; experiment: Patient with drug-induced rhabdomyolysis given ribose (case report)
Text: They were started on a statin drug. Within three months they were diagnosed with rhabdomyolysis resulting in chronic renal failure and symptoms of extreme fatigue and muscle pain. The patient was placed on five grams of ribose, twice daily, after symptoms had persisted for about four months. […] They stayed on the regimen for about three months. Upon cessation of ribose administration, the fatigue and pain slowly returned, but not as severe as had been previously experienced.

[2] = system: patients with clinical statin-induced myalgias; experiment: Placebo-controlled pilot study of ribose on muscle pain in patients with statin-induced myalgias; settings: for Severity of symptoms, Mean (sd): scale 1=mild to 5=severe
Text: Thirty patients aged 20 to 80 years of age presently taking statins and showing clinical statin-induced myalgias were randomized in a six-week placebo-controlled study of the effect of ribose on muscle pain. Fifteen patients were given five grams of ribose twice a day to determine the improvement in clinical symptoms, using an objective patient questionnaire and physician interview. The primary symptom reported was muscle pain, but other symptoms commonly reported included fatigue, poor sleep, a decrease in mental clarity and a reduced sense of well-being. Fifteen patients presently taking statins were given five grams of glucose twice a day as a control. All patients were given a complete history and physical exam. The patient's assessment of muscle pain, soreness or cramping was graded on a scale of one to five, five being the most severe.
Exclusions: Statin-induced myopathy with elevated CPJK over twice normal • Statin-induced hepatopathy with elevated LFTs over twice normal Pregnancy • Insulin-dependant diabetes • Diseases known to be associated with myalgias, such as fibromyalgia, PMR, CTD, genetic or acquired myopathies • New drugs or supplements during the study period
Inclusions: • Patients on any FDA-approved statin at recommended doses. • Constant use of statin dose and any other drugs for at least four weeks prior to study entry
Ribose or glucose were given as a pill or powder and compliance was monitored by pill count or powder measurement on each visit, weekly during the four week study period. A questionnaire was developed to validate the study results.
The severity of symptoms were compared at each follow-up visit. Subjects were asked to rate the severity of symptoms on a scale from 1 to 5; 1=mild and 5=severe.

[3] = system: patients with chronic fatigue syndrome or fibromyalgia syndrome; experiment: Pre- and post-ribose Visual Analog Scale assessment in chronic fatigue syndrome or fibromyalgia syndrome patients
Text: There is a cluster of diseases of unknown etiology that share some common symptoms. Included in this cluster are chronic fatigue syndrome, fibromyalgia syndrome and statin-induced myalgia. The most prominent symptoms is pain in the muscles, accompanied by pain in connective tissue (fibromyalgia), sleep disturbance, lack of mental clarity and feelings of well-being. In addition to the patients of Example 1 and 2, who presented with statin-induced myalgia, a mixed cohort of patients having given a physician's diagnosis of chronic fatigue syndrome or fibromyalgia syndrome were given a supply of D-ribose for self administration. Each patient served as his or her control, the results being reported as pre- and post-ribose administration. Compliance was estimated by the amount of the ribose supply remaining. Those patients having administered at least one-half of the 280 grams supply were included in the following summary. A total of 41 subjects were enrolled, of whom five were considered non-compliant and excluded from these analyses. Of the remaining 36 subjects, 78% were female, average age 48 years; 58% and 85% had been previously diagnosed with fibromyalgia and/or chronic fatigue syndrome. Twenty-nine subjects (81%) took a B-complex vitamin daily. The average length of time taking ribose was 25 days. The primary outcome measure was the initial versus final visit Visual Analog Scale (VAS) score: • 1. Visual Analog (well-being) Scale of 1-10 for five questions obtained before the first and after the last dose of ribose. • (A) How is your energy? (1=near dead and 10+excellent) • (B) How is your sleep? (1=no sleep and 10=8 hours of sleep a night without waking. • (C) How is your mental clarity? (1=brain dead and 10=good clarity) • (D) How bad is your pain? (1=very severe pain and 10=pain free) • (F) How is your overall sense of well-being? (1=near dead and 10=excellent) On taking the final dose, the patient was also asked in fill in: “much better, somewhat better, no change, somewhat worse and much worse.” The patients were also asked to comments on benefits or side effects. If they felt better, about how long did it take to feel better? Since the compliance was ascertained only by the amount of ribose remaining, the patients were asked to comment in more detail on their guesstimate of doses missed.

[4] = person, five grams of ribose twice daily, within one week
[5] = individualized response, ribose n = 12

O=C[C@H](O)[C@H](O)[C@H](O)CO [Ribose, D-ribose]
fatigue (patient report) [1, 4]: greatly reduced
muscle pain (patient report) [1, 4]: gone
symptoms after returning to the ribose regimen ([1]; ribose resumed a month after cessation, fatigue and pain had slowly returned): again experienced relief of symptoms
Severity of symptoms, Mean (sd) ([2]; Week 1, n = 15): 3.7 (0.8)
Severity of symptoms, Mean (sd) ([2]; Week 2, n = 13): 3.9 (0.8)
Severity of symptoms, Mean (sd) ([2]; Week 3, n = 12): 3.7 (0.8)
Severity of symptoms, Mean (sd) ([2]; Week 4, n = 12): 3.6 (1.0)
Severity of symptoms, Mean (sd) ([2]; Week 5, wash out period, n = 9): 3.4 (1.0)
Severity of symptoms, Mean (sd) ([2]; Week 6, wash out period, n = 8): 3.7 (0.8)
severity of symptoms at baseline ([2]; baseline, scale 1 to 5, placebo group 3.0): 3.7
global assessment of symptom improvement: patients classified as Improved ([2]; five grams ribose twice a day, 11 of 13 ribose patients, placebo 3 of 14 (21%)): 85%
patients reporting a change in symptoms at end of test period ([2]; four weeks, 10 of 12 remaining ribose patients, placebo 5 of 14 (36%), p=0.02): 83%
patients with More than 50% improvement [2, 5]: 36%
patients with No improvement or worse [2, 5]: 27%
patients with Some improvement [2, 5]: 73%
patients with No improvement or worse ([2]; individualized response, ribose n = 12, listed as ribose): 27%
average improvement greater than the placebo group ([2]; repeated measures analysis adjusted for baseline severity difference, p=0.35): 0.10 units per week
patients experiencing at least some improvement during the study ([3]; 23 of the 35 patients answering the general question): 65.7%
VAS Energy, Post- Mean (std) ([3]; 36 patients, post-ribose, scale 1-10, pre-ribose 3.8 (1.1), average 25 days on ribose): 5.5 (1.5)
VAS Well-being, Post- Mean (std) ([3]; 36 patients, post-ribose, scale 1-10, pre-ribose 4.3 (1.3)): 5.6 (1.5)
VAS Sleep, Post- Mean (std) ([3]; 36 patients, post-ribose, scale 1-10, pre-ribose 4.8 (1.6)): 6.0 (1.9)
VAS Mental Clarity, Post- Mean (std) ([3]; 36 patients, post-ribose, scale 1-10, pre-ribose 4.9 (1.5)): 5.7 (1.7)
VAS Pain, Post- Mean (std) ([3]; 36 patients, post-ribose, scale 1=very severe pain, 10=pain free, pre-ribose 4.9 (2.3)): 5.6 (2.2)
patients reporting no change to somewhat worse than at the beginning of the study ([3]; general question at final dose): three
